A word on the IC50: it is the concentration that inhibits the measured activity by half.

In US20250163064A1, “QUINAZOLINE COMPOUNDS AND USES THEREOF AS INHIBITORS OF MUTANT KRAS PROTEINS” (AMGEN INC., priority 2022, published 2025) one finds IC50 data, which are given here for 14 compounds.

The structures appear in SMILES notation.

Assay [1] addresses His-tagged KRAS G12D protein (Homo sapiens (Human), UniProt P01116, G12D). The experiment in a line: KRAS G12D TR-FRET Assay. The settings on record: biotinylated KRPep-2d, 10 μM GDP. The format is binding. As to the method: Compounds of interest were prepared in a dose-response titration in DMSO, and 80 nL were added via Labcyte Echo to each well of a 384-well plate (Perkin Elmer 6008280). The His-tagged KRAS G12D protein (Amgen) was diluted to 20 nM in Assay Buffer (20 mM HEPES, pH 7.4, 10 mM MgCl2, 50 mM NaCl, 0.1% BSA, 0.01% Tween-20, 10 μM GDP) and 2 μL was added to the appropriate wells of the 384-well plate. The plate was incubated for 30 minutes at rt. Biotinylated KRPep-2d substrate (Amgen) was diluted to […] in Assay Buffer and 2 AL was added to all wells and incubated for 1 hour at room temperature. Detection Reagent (0.4 nM LANCE Eu-W1024 Anti-6×His (Perkin Elmer AD0401), 5 nM streptavidin-d2 (Cisbio 610SADLA)) was prepared in Assay Buffer, then 4 AL was added to the plate and incubated for 1 h at rt. Plates were read using PerkinElmer En Vision (ex: 320 nm, em1: 665 nm, em2: 615 nm) and em1/em2 data was used to generate curve fits using a 4-parameter logistic model to calculate IC50 values.
(In general: In TR-FRET formats the signal depends on donor and acceptor labels being close together.)

Assay [2] has as its system Phosphorylation of ERK1/2 in AsPC-1 cells. The experiment in a line: Phospho-ERK1/2 MSD Assay. The format is cell-based. The settings on record: Homo sapiens, ASPC1, 2 h, read-out: 2 h p-ERK (AsPC-1 cells), IC50 (μM), AsPC-1 cells, 2 h compound treatment. As to the method:
AsPC-1 (ATCC® CRL-1682TM) cells were cultured in RPMI 1640 Medium (ThermoFisher Scientific 11875093) containing 10% fetal bovine serum (ThermoFisher Scientific 16000044) and 1× penicillin-streptomycin-glutamine (ThermoFisher Scientific 10378016). Sixteen hours prior to compound treatment, AsPC-1 cells were seeded in 96-well cell culture plates at a density of 25,000 cells/well and incubated at 37° C., 5% CO2. A compound dose-response titration was diluted in growth media, added to appropriate wells of a cell culture plate, and then incubated at 37° C., 5% CO2 for 2 hours. Following compound treatment, cells were washed with ice-cold Dulbecco's phosphate-buffered saline, no Ca^2+ or Mg^2+ (ThermoFisher Scientific 14190144), and then lysed in RIPA buffer (50 mM Tris-HCl pH 7.5, 1% Igepal, 0.5% sodium deoxycholate, 150 mM NaCl, and 0.5% sodium dodecyl sulfate) containing protease inhibitors (Roche 4693132001) and phosphatase inhibitors (Roche 4906837001). Phosphorylation of ERK1/2 in compound-treated lysates was assayed using Phospho-ERK1/2 Whole Cell Lysate kits (Meso Scale Discovery K151DWD) according to the manufacturer's protocol. Assay plates were read on a Meso Scale Discovery Sector Imager 6000, and data were analyzed using a 4-parameter logistic model to calculate IC50 values.

The target of assay [3] is GDP-bound KRAS protein (aa 1-169), G12D and C118A; SOS-mediated nucleotide exchange (Homo sapiens (Human), UniProt P01116, C118A/G12D). The experiment in a line: KRAS G12D Coupled Nucleotide Exchange Assay. The assay is classed as biochemical. Particulars: 2 h compound pre-incubation, GTP, cRAF AlphaScreen. How it is done:
Purified GDP-bound KRAS protein (aa 1-169), containing both G12D and C118A amino acid substitutions and an N-terminal His-tag, was pre-incubated in assay buffer (25 mM HEPES pH 7.4, 10 mM MgCl2, and 0.01% Triton X-100) with a compound dose-response titration for 2 h. Following compound pre-incubation, purified SOS protein (aa 564-1049) and GTP (Roche 10106399001) were added to the assay wells and incubated for an additional 30 min. […] The assay plates were then read on a PerkinElmer En Vision Multilabel Reader, using AlphaScreen® technology, and data were analyzed using a 4-parameter logistic model to calculate IC50 values.
In general terms: In Alpha technology, singlet oxygen from a donor bead excites a nearby acceptor bead.

GDP-bound KRAS protein (aa 1-169), G12D and C118A; SOS-mediated nucleotide exchange, sequence (P01116 other isoform, or with tags, fused parts or gaps G12D/C118A): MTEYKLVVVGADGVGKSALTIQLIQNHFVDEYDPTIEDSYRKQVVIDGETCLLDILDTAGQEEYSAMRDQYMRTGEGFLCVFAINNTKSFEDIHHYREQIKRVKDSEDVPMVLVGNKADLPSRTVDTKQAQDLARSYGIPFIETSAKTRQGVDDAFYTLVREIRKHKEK
His-tagged KRAS G12D protein, sequence (P01116-2 other isoform, or with tags, fused parts or gaps G12D): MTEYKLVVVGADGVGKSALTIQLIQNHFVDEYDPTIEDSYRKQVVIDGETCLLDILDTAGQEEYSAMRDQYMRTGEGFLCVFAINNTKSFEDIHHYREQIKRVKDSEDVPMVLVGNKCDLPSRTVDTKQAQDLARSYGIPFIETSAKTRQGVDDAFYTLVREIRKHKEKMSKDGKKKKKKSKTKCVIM

`N#Cc1c(N)sc2c(F)ccc(-c3c(Cl)cc4c(N5CCCC6(CC(=O)C6)C5)nc(OC[C@@]56CCCN5C[C@H](F)C6)nc4c3F)c12` [Example 40, 2-Amino-4-(6-chloro-8-fluoro-2-(((2R,7aS)-2-fluorotetrahydro-1H-pyrrolizin-7a(5H)-yl)methoxy)-4-(2-oxo-6-azaspiro[3.5]nonan-6-yl)quinazolin-7-yl)-7-fluorobenzo[b] thiophene-3-carbonitrile]: the IC50 in assay [1] came to 0.019 µM; in assay [2] it was 1.68 µM; in assay [3] it was 0.026 µM.
The matching figures for `N#Cc1c(N)sc2c(F)ccc(-c3c(Cl)cc4c(N5CCC[C@H]5C#N)nc(OC[C@@]56CCCN5C[C@H](F)C6)nc4c3F)c12` [Example 53, (2S)-1-(7-(2-Amino-3-cyano-7-fluorobenzo[b]thiophen-4-yl)-6-chloro-8-fluoro-2-(((2R,7aS)-2-fluorotetrahydro-1H-pyrrolizin-7a(5H)-yl)methoxy)quinazolin-4-yl)pyrrolidine-2-carbonitrile]: 0.001 µM, 0.119 µM and 0.001 µM.
The matching figures for `C[C@]1(O)CCCN(c2nc(OC[C@@]34CCCN3C[C@H](F)C4)nc3c(F)c(-c4ccc(F)c5sc(N)c(C#N)c45)c(Cl)cc23)C1` [Example 39, 2-Amino-4-(6-chloro-8-fluoro-2-(((2R,7aS)-2-fluorotetrahydro-1H-pyrrolizin-7a(5H)-yl)methoxy)-4-((S)-3-hydroxy-3-methylpiperidin-1-yl)quinazolin-7-yl)-7-fluorobenzo[b] thiophene-3-carbonitrile]: 0.01 µM, 0.283 µM and 0.011 µM.
For the compound `N#Cc1c(N)sc2c(F)ccc(-c3c(Cl)cc4c(N5CCCC6(CCS(=O)(=O)C6)C5)nc(OC[C@@]56CCCN5C[C@H](F)C6)nc4c3F)c12` (stereo partly drawn) [Example 38, 2-Amino-4-(6-chloro-4-(2,2-dioxido-2-thia-7-azaspiro[4.5]decan-7-yl)-8-fluoro-2-(((2R,7aS)-2-fluorotetrahydro-1H-pyrrolizin-7a(5H)-yl)methoxy)quinazolin-7-yl)-7-fluorobenzo[b] thiophene-3-carbonitrile], the results for the IC50 in assay [1], in assay [2] and in assay [3] were 0.01 µM, 0.781 µM and 0.01 µM, respectively.
`CS(=O)(=O)N1CC2(CCCN(c3nc(OC[C@@]45CCCN4C[C@H](F)C5)nc4c(F)c(-c5ccc(F)c6sc(N)c(C#N)c56)c(Cl)cc34)C2)C1` [Example 14]: the IC50 in assay [1] came to 0.004 µM; in assay [2], 0.729 µM; in assay [3], 0.004 µM.
With `N#Cc1c(N)sc2c(F)ccc(-c3c(Cl)cc4c(C5=CCCOC5)nc(OC[C@@]56CCCN5C[C@H](F)C6)nc4c3F)c12` [Example 70, 2-Amino-4-(6-chloro-4-(5,6-dihydro-2H-pyran-3-yl)-8-fluoro-2-(((2R,7aS)-2-fluorotetrahydro-1H-pyrrolizin-7a(5H)-yl)methoxy)quinazolin-7-yl)-7-fluorobenzo[b]thiophene-3-carbonitrile bis(2,2,2-trifluoroacetate)], the IC50 in assay [1] was determined as 0.034 µM; in assay [2], 0.845 µM; in assay [3], 0.019 µM.
The matching figures for `C[C@@]1(CO)CCCN1c1nc(OC[C@@]23CCCN2C[C@H](F)C3)nc2c(F)c(-c3ccc(F)c4sc(N)c(C#N)c34)c(Cl)cc12` [Example 47, 2-Amino-4-(6-chloro-8-fluoro-2-(((2R,7aS)-2-fluorotetrahydro-1H-pyrrolizin-7a(5H)-yl)methoxy)-4-((S)-2-(hydroxymethyl)-2-methylpyrrolidin-1-yl)quinazolin-7-yl)-7-fluorobenzo[6] thiophene-3-carbonitrile]: 0.017 µM, 1.11 µM and 0.007 µM.
The matching figures for `CC1(O)CCCCN(c2nc(OC[C@@]34CCCN3C[C@H](F)C4)nc3c(F)c(-c4ccc(F)c5sc(N)c(C#N)c45)c(Cl)cc23)C1` (single isomer, unassigned) [Example 28]: 0.003 µM, 0.097 µM and 0.005 µM.
The matching figures for `N#Cc1c(N)sc2c(F)ccc(-c3c(Cl)cc4c(N5CCOCC(F)(F)C5)nc(OC[C@@]56CCCN5C[C@H](F)C6)nc4c3F)c12` [Example 34, 2-Amino-4-(6-chloro-4-(6,6-difluoro-1,4-oxazepan-4-yl)-8-fluoro-2-(((2R,7aS)-2-fluorotetrahydro-1H-pyrrolizin-7a(5H)-yl)methoxy)quinazolin-7-yl)-7-fluorobenzo[b] thiophone-3-carbonitrile]: 0.004 µM, 0.093 µM and 0.004 µM.
On to `CCC1(O)CCCN(c2nc(OC[C@@]34CCCN3C[C@H](F)C4)nc3c(F)c(-c4ccc(F)c5sc(N)c(C#N)c45)c(Cl)cc23)C1` (stereo partly drawn) [Example 37, 2-Amino-4-(6-chloro-4-(3-ethyl-3-hydroxypiperidin-1-yl)-8-fluoro-2-(((2R,7aS)-2-fluorotetrahydro-1H-pyrrolizin-7a(5H)-yl)methoxy)quinazolin-7-yl)-7-fluorobenzo[b] thiophone-3-carbonitrile], for which the IC50 in assay [1] is 0.008 µM; in assay [2] it was 0.859 µM; in assay [3] it was 0.01 µM.
For `N#Cc1c(N)sc2c(F)ccc(-c3c(Cl)cc4c(N5CCCC[C@H](O)C5)nc(OC[C@@]56CCCN5C[C@H](F)C6)nc4c3F)c12` [Example 5, 2-Amino-4-(6-chloro-8-fluoro-2-(((2R,7a.S)-2-fluorotetrahydro-1H-pyrrolizin-7a(5H)-yl)methoxy)-4-((S)-3-hydroxyazepan-1-yl)quinazolin-7-yl)-7-fluorobenzo[b] thiophene-3-carbonitrile] the same measures were 0.003 µM, 0.097 µM and 0.004 µM.
Regarding `N#Cc1c(N)sc2c(F)ccc(-c3c(Cl)cc4c(N5CCOC[C@@H](O)C5)nc(OC[C@@]56CCCN5C[C@H](F)C6)nc4c3F)c12` [Example 32, 2-Amino-4-(6-chloro-8-fluoro-2-(((2R,7aS)-2-fluorotetrahydro-1H-pyrrolizin-7a(5H)-yl)methoxy)-4-((S)-6-hydroxy-1,4-oxazepan-4-yl)quinazolin-7-yl)-7-fluorobenzo[b] thiophene-3-carbonitrile], the results for the IC50 in assay [1], in assay [2] and in assay [3] were 0.002 µM, 0.079 µM and 0.002 µM, respectively.
Take `N#Cc1c(N)sc2c(F)ccc(-c3c(Cl)cc4c(N5CCCCOCC5)nc(OC[C@@]56CCCN5C[C@H](F)C6)nc4c3F)c12` [Example 51, 2-Amino-4-(6-chloro-8-fluoro-2-(((2R,7aS)-2-fluorotetrahydro-1H-pyrrolizin-7a(5H)-yl)methoxy)-4-(1,4-oxazocan-4-yl)quinazolin-7-yl)-7-fluorobenzo[b] thiophene-3-carbonitrile]: the IC50 in assay [1] is 0.002 µM; in assay [2], 0.089 µM; in assay [3] it was 0.002 µM.
`N#Cc1c(N)sc2c(F)ccc(-c3c(Cl)cc4c(N5CCCCCC5)nc(OC[C@@]56CCCN5C[C@H](F)C6)nc4c3F)c12` [Example 1, 2-Amino-4-(4-(azepan-1-yl)-6-chloro-8-fluoro-2-(((2R,7aS)-2-fluorotetrahydro-1H-pyrrolizin-7a(5H)-yl)methoxy)quinazolin-7-yl)-7-fluorobenzo[b]thiophene-3-carbonitrile]: the IC50 in assay [2] amounted to 0.052 µM.
